Experimental data reported in PMC3379994, “Comprehensive Analysis of Interactions between the Src-Associated Protein in Mitosis of 68 kDa and the Human Src-Homology 3 Proteome” (PLoS ONE, 2012).

Tests used:
Hck = Hck (Homo sapiens, UniProt P08631); conditions: n = 3
Method: (§1) To characterize the binding of SH3-phages to recombinant proteins, phage-ELISA analyses were performed. First, 1 µg of recombinant protein per well was immobilized on 96-well MaxiSorp plates (Nunc) over night. After washing thrice with PBS/T (PBS with 0.1 % Tween-20) and blocking with 5 % BSA in PBS, dilution-series of the respective phage-supernatants in 2×YTAmp,Kana were added and incubated for 1 h. After washing 10 times with PBS/T, an HRP-coupled anti-M13-antibody (GE Healthcare, 27-9421-01) diluted 1 : 5000 in blocking solution was added for 1 h. After washing again 10 times, TMB substrate solution was added, the reaction finally stopped by addition of 0.5 M H2SO4, and the result read out by measuring OD450.
(§2) First, we aimed at quantifying the binding affinities of the SH3-displaying phages to Sam68. To this end, we established a phage-ELISA procedure to separately analyse phage supernatants of the ten individual SH3-phages. In brief, His-Sam68 was coated to a 96-well plate, blocked and incubated with a dilution series of phage supernatants. Finally, bound phages were detected using an anti-M13-specific HRP-coupled antibody. As depicted in Fig. 1A, binding curves were obtained that are typical for a simple ligand-receptor relationship as is expected for an SH3-domain-PxxP-interaction showing no allosteric effects. Kd-values can not be deduced from these curves in the first instance, because the concentration of SH3 domains in the supernatants is unknown due to each phage particle presenting many copies on its surface. […]
(§3) Figure 1 Analysis of Sam68-binding SH3 domains in vitro. […] The amounts of bound phages were measured using a horseradish peroxidase-conjugated anti-M13-specific antibody with TMB-substrate detection at 450 nm (mean of three independent experiments, normalized to maximum OD-values). […] Bound proteins were eluted and Sam68 was detected by western blot analysis. […]

IS2#3 = molecular target: T1, IS2#3 (Homo sapiens, UniProt Q9NZM3); conditions: n = 3
T1 construct: gene ITSN2
T1 sequence (Q9NZM3 981-1039): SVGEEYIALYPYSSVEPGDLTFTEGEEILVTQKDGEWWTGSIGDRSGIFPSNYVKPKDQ
Method: as §1, §2, §3

Src = Src (Homo sapiens, UniProt P12931); conditions: n = 3
Method: as §1, §2, §3

Nck1#2 = Nck1#2 (Homo sapiens, UniProt P16333); conditions: n = 3
Method: as §1, with “OD450. […]” for “OD450.”
First, we aimed at quantifying the binding affinities of the SH3-displaying phages to Sam68. […] Finally, bound phages were detected using an anti-M13-specific HRP-coupled antibody. […]
as §3

β-Pix-SH3 = molecular target: T2, β-Pix-SH3 (Homo sapiens, UniProt Q14155); conditions: cited from earlier work
T2 construct: gene ARHGEF7; β-Pix SH3 domain
T2 sequence (Q14155 184-243): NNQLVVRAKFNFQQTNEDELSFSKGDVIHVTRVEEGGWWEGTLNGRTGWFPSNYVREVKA
From the text: Remarkably, Kd values calculated for the Sam68-SH3-interactions (considering the aforementioned correction value) lie in the low nanomolar range (cf. Fig. 1B). This is unexpected for SH3 domains, whose affinities are considered to lie in the low micromolar range [2], [51]. However, critical examination of the literature challenges the generality of the latter proposition. […] This can have a significant influence on binding-strength, as illustrated for instance for the Abp1-SH3 domain, comprising a Kd-value of 100 µM to a 14-mer ligand-peptide, and 40 µM after elongation to a 17-mer peptide. Nevertheless, some values obtained for Sam68-SH3 interactions still are one order of magnitude lower than even the best reported in the literature. Likely, this is due to an artifical avidity effect resulting from the use of the SH3-phages. As the SH3 domains bind to more than one of the PxxP-motifs, it is conceivable that one phage-particle docks to two or more PxxP-motifs of an individual Sam68 molecule via multiple SH3 domains. Consequently, even after dissociation of one SH3-PxxP-pair, the phage would still be retained by the protein. Kinetically, this corresponds to a decrease in the off-rate and concomitantly to a decrease in the Kd value. The affinity gain of the interaction is not due to cooperativity, as is evident from the Hill-transformed ELISA data yielding Hill-coefficients α of 1.0. […]

Chain of Hck (P08631 78-138): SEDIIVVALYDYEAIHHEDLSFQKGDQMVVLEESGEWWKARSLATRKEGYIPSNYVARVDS

Kd (Hck) [µM] | Kd (IS2#3) [µM] | Kd (Src) [µM] | Kd (Nck1#2) [µM] | Substance | Kd (β-Pix-SH3) [µM]
0.031 | 0.059 | 0.006 | 0.031 | Src-associated in mitosis 68 kDa (KHDRBS1), full-length, N-terminally His-tagged recombinant [Sam68] | 
 |  |  |  | Pak2 | 0.059
